# Assays:
# [1] = Oral bioavailability in Wistar Han rat at 5 mg/kg by LC-MS/MS analysis; assay type: ADME, organism-based; details: in vivo
# [2] = Cardiotoxicity in guinea pig assessed as increase in QTc level at 157X unbound EM infused via iv consecutively for 20 mins; assay type: toxicity, organism-based, Cavia porcellus; details: in vivo
# [3] = Unbound brain-to-plasma concentration ratio in rat at 2.5 uM incubated for 4 hrs by equilibrium dialysis method; assay type: ADME, cell-free; details: brain and plasma (unbound), read-out: K(p,uu,brain)
# [4] = system: Leucine-rich repeat serine/threonine-protein kinase 2 (Homo sapiens), Q5S007 [G2019S]; experiment: Inhibition of LRRK2 […] mutant expressed in human SH-SY5Y cells assessed as unbound concentration required for inhibition of phosphorylation of LRRK2 at Ser935 residue incubated for 90 mins by MSD assay; assay type: cell-based
# Leucine-rich repeat serine/threonine-protein kinase 2 (Homo sapiens), Q5S007 [G2019S], sequence (Q5S007 whole entry G2019S): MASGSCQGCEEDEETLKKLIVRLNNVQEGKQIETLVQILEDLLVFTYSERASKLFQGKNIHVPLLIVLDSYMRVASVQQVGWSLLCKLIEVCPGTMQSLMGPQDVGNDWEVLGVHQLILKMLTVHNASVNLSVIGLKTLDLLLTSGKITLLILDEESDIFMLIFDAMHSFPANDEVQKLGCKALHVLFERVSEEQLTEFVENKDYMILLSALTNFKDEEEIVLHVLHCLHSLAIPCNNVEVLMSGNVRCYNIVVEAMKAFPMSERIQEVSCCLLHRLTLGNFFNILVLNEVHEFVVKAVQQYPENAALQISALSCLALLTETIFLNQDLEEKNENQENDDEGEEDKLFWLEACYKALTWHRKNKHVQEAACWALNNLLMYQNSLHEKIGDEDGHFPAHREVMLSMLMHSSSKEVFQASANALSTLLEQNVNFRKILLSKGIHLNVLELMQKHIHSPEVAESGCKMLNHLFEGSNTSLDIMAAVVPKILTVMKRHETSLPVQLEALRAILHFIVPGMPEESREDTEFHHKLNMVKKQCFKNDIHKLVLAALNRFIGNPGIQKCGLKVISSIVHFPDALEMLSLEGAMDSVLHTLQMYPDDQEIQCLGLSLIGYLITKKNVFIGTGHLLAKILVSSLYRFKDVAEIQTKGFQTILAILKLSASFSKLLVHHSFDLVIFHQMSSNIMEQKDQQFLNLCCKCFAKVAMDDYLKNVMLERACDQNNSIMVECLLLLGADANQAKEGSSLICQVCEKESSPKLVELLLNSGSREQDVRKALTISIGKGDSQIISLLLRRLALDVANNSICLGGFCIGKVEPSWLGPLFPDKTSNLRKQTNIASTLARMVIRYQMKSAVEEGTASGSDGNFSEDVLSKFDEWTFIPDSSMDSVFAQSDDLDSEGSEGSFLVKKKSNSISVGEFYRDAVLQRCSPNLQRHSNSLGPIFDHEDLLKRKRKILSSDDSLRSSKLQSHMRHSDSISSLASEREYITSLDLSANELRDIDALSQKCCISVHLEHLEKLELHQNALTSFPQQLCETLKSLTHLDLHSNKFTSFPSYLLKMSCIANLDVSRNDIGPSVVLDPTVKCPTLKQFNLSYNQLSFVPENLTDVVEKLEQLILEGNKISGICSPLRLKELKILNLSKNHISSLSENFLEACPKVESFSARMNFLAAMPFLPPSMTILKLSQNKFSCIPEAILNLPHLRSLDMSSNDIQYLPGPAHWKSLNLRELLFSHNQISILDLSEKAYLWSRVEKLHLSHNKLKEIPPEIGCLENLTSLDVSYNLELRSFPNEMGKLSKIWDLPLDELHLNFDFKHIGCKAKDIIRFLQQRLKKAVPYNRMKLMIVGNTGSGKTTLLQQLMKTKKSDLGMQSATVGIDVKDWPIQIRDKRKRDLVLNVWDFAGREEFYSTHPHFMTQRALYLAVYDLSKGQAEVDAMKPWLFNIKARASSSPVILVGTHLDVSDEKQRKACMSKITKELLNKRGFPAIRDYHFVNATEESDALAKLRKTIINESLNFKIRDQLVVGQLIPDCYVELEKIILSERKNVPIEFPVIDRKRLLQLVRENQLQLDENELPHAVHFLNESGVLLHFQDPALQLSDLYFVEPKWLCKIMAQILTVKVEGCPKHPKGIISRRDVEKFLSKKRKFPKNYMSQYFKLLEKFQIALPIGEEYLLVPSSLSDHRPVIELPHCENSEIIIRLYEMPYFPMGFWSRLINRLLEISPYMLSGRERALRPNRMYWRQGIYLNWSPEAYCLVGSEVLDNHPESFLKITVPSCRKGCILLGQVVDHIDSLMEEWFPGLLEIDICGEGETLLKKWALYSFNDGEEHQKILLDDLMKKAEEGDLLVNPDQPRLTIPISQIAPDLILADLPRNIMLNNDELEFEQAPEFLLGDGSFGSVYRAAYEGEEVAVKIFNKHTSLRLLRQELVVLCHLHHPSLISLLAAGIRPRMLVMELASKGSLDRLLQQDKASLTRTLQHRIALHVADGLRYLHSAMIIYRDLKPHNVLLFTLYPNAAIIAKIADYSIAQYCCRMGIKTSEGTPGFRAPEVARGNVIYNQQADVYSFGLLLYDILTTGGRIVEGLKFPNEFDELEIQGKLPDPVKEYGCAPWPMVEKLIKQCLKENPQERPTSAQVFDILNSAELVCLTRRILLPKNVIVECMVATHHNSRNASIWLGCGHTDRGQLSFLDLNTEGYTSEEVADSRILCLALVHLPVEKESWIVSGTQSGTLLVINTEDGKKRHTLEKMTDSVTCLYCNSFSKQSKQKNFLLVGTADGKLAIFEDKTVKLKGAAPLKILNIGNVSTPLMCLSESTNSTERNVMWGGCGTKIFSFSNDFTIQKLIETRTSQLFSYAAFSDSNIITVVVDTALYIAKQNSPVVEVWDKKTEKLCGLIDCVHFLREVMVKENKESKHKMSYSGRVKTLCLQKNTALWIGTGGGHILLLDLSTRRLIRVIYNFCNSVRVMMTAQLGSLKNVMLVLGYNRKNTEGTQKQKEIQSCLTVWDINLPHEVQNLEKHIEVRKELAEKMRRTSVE
# rat Mdr1a (P-gp) [5] = experiment: Efflux ratio of apparent permeability across basolateral to apical side over apical to basolateral side in rat Mdr1a-transfected pig LLC-PK1 cells at 0.1 to 1 uM measured after 3 hrs by LC/MS/MS analysis; assay type: ADME, cell-based, Sus scrofa; details: dose 0.1-1 µM
# rat Mdr1a (P-gp) [6] = experiment: Apparent permeability from apical to basolateral side in rat Mdr1a-transfected pig LLC-PK1 cells at 0.1 to 1 uM measured after 3 hrs by LC/MS/MS analysis; assay type: ADME, cell-based, Sus scrofa; details: dose 0.1-1 µM
# [7] = Intrinsic clearance in human hepatocytes at 0.3 uM incubated for 90 mins by LC/MS/MS analysis; assay type: ADME, cell-based, Hepatocyte; details: read-out: CLH
# [8] = Intrinsic clearance in rat hepatocytes at 0.3 uM incubated for 90 mins by LC/MS/MS analysis; assay type: ADME, cell-based, Hepatocyte; details: read-out: CLH
# [9] = Total plasma clearance in Wistar Han rat at 2 mg/kg, iv by LC-MS/MS analysis; assay type: ADME, organism-based
# [10] = Oral bioavailability in Beagle dog at 0.5 mg/kg by LC-MS/MS analysis; assay type: ADME, organism-based, Canis lupus familiaris; details: in vivo
# [11] = biological target: Voltage-gated inwardly rectifying potassium channel KCNH2 (Homo sapiens, UniProt Q12809); experiment: Inhibition of human ERG by voltage clamp assay; assay type: toxicity
# Voltage-gated inwardly rectifying potassium channel KCNH2, sequence (Q12809 whole entry): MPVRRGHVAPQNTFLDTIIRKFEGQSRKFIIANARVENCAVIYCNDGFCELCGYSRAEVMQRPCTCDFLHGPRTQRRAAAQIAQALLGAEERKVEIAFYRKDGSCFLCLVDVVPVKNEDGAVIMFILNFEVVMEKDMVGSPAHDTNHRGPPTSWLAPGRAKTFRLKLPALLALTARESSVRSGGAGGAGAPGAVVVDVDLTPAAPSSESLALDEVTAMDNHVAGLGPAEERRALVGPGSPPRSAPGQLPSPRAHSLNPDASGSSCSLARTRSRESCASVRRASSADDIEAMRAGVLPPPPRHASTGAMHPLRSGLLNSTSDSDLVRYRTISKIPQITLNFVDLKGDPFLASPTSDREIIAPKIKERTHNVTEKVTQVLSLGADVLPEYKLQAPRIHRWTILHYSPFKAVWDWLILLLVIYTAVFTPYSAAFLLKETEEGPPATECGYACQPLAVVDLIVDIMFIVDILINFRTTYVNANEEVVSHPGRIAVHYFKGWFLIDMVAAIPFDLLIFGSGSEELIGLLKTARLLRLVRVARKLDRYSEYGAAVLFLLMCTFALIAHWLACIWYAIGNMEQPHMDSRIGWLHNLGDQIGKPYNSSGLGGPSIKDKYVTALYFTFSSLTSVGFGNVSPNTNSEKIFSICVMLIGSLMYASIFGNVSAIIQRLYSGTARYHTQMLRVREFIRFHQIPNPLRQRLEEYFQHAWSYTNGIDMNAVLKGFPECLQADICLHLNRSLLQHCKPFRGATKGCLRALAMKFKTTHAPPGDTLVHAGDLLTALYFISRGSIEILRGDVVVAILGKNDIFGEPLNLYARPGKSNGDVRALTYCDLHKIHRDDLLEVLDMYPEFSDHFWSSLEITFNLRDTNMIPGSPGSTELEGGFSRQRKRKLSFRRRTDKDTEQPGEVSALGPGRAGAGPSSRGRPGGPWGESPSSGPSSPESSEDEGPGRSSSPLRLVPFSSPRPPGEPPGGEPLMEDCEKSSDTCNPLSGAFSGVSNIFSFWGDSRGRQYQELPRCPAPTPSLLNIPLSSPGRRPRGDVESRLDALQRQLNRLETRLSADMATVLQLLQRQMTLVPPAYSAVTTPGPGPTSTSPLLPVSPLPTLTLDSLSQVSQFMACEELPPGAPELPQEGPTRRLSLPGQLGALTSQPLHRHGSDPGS
# Salmonella typhimurium [12] = experiment: Mutagenicity in Salmonella typhimurium TA1535 at 30 to 5000 ug incubated for 48 hrs in presence of liver S9 fraction by AMES test; assay type: toxicity, organism-based, Salmonella enterica subsp. enterica serovar Typhimurium; details: s9, 48 h, dose 30-5000 µg
# Salmonella typhimurium [13] = experiment: Mutagenicity in Salmonella typhimurium TA100 at 30 to 5000 ug incubated for 48 hrs in presence of liver S9 fraction by AMES test; assay type: toxicity, organism-based, Salmonella enterica subsp. enterica serovar Typhimurium; details: s9, 48 h, dose 30-5000 µg
# [14] = biological target: Leucine-rich repeat serine/threonine-protein kinase 2 (Homo sapiens) (UniProt Q5S007); experiment: Ex vivo inhibition of LRRK2 in human PBMC assessed as unbound concentration required for reduction in LRRK2 phosphorylation at Ser935 residue incubated for 90 mins by MSD assay; assay type: cell-based
# Leucine-rich repeat serine/threonine-protein kinase 2 (Homo sapiens), sequence (Q5S007 whole entry): as the sequence (Q5S007 whole entry G2019S) above, with S2019G counted along it
# [15] = Total plasma clearance in Beagle dog at 1 mg/kg, iv by LC-MS/MS analysis; assay type: ADME, organism-based, Canis lupus familiaris
# [16] = Total plasma clearance in Rhesus monkey at 3 mg/kg, iv by LC-MS/MS analysis; assay type: ADME, organism-based, Macaca mulatta
# [17] = Intrinsic clearance in Beagle dog at 1 mg/kg, iv by LC-MS/MS analysis; assay type: ADME, organism-based, Canis lupus familiaris; details: in vivo
# [18] = Intrinsic clearance in Rhesus monkey at 3 mg/kg, iv by LC-MS/MS analysis; assay type: ADME, organism-based, Macaca mulatta; details: in vivo
# [19] = MRT in Rhesus monkey at 3 mg/kg, iv by LC-MS/MS analysis; assay type: ADME, organism-based, Macaca mulatta; details: in vivo
# [20] = MRT in Beagle dog at 1 mg/kg, iv by LC-MS/MS analysis; assay type: ADME, organism-based, Canis lupus familiaris; details: in vivo
# [21] = Unbound fraction in CD rat brain at 1 to 100 mg/kg, po measured after 120 mins by LC/MS/MS analysis; assay type: ADME, organism-based; details: in vivo, 2 h, dose 1-100 mg/kg
# [22] = Unbound fraction in CD rat plasma at 1 to 100 mg/kg, po measured after 120 mins by LC/MS/MS analysis; assay type: ADME, organism-based; details: in vivo, 2 h, dose 1-100 mg/kg
# [23] = biological target: Mitogen-activated protein kinase 3 (Homo sapiens, UniProt P27361); experiment: Inhibition of ERK1 (unknown origin)
# Mitogen-activated protein kinase 3, sequence (P27361 whole entry): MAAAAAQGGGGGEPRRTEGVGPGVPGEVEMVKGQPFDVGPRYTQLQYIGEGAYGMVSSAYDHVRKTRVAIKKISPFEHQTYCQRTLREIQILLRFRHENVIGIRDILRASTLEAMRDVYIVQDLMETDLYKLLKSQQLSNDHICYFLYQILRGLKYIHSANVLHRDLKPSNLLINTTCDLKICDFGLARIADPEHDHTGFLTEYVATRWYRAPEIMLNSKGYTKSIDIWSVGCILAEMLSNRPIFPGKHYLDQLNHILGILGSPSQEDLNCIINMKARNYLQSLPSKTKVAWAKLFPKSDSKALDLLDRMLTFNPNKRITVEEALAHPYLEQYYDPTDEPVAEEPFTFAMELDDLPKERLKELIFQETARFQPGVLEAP
# Substance-P receptor = Substance-P receptor (Homo sapiens, UniProt P25103); experiment: Inhibition of tachykinin NK1 receptor (unknown origin)
# Substance-P receptor, sequence (P25103 whole entry): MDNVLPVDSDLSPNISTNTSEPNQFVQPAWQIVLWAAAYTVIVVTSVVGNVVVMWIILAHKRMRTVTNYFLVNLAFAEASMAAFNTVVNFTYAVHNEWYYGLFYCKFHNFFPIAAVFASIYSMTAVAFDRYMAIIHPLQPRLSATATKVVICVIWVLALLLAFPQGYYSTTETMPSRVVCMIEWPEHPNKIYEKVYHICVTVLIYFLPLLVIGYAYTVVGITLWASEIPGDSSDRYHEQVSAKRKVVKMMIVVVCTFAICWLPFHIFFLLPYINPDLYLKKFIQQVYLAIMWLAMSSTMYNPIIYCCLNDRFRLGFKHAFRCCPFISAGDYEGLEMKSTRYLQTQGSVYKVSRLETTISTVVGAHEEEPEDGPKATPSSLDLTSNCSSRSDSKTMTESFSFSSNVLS
# [24] = Inhibition of adenosine transporter (unknown origin); parameters: species or system Homo sapiens
# [25] = Genotoxicity in CHO-WBL cells incubated for 3 hrs in presence of liver S9 extract by invitro micronucleus test; assay type: toxicity, Cricetulus griseus; details: chinese hamster, s9, 3 h
# [26] = Cardiotoxicity in telemetered Wistar Han rat assessed as NOAEL at 30 mg/kg, po; assay type: toxicity, organism-based; details: in vivo
# [27] = Cardiotoxicity in telemetered Wistar Han rat assessed as elevation of systolic blood pressure at 100 mg/kg, po; assay type: toxicity, organism-based; details: in vivo
# [28] = Unbound brain-to-plasma concentration ratio in rat at 10 mg/kg, po qd for 4 days by LC/MS/MS analysis; assay type: ADME, organism-based; details: brain and plasma (unbound), time 4 day, read-out: K(p,uu,brain)
# [29] = AUC in rat at 10 to 400 mg/kg, po qd for 4 days by LC/MS/MS analysis; assay type: ADME, organism-based; parameters: time 4 day; details: in vivo, 96 h, dose 10-400 mg/kg
# [30] = Toxicity in rat assessed as clinical signs of toxicity at 40 to 400 mg/kg, po qd administered for 4 days; assay type: organism-based; details: in vivo, 96 h, dose 40-400 mg/kg, time 4 day
# [31] = Toxicity in rat bone marrow at 40 to 400 mg/kg, po qd administered for 4 days by micronucleus assay; assay type: organism-based; details: in vivo, 96 h, dose 40-400 mg/kg, time 4 day
# [32] = Toxicity in rat assessed as reduction in weight gain at 150 mg/kg, po qd administered for 4 days; assay type: organism-based; details: in vivo, 96 h, time 4 day
# [33] = Toxicity in rat assessed as fold increase in serum ALT levels at 150 mg/kg, po qd administered for 4 days; assay type: organism-based; details: in vivo, 96 h, time 4 day
# [34] = Toxicity in rat assessed as body weight loss at 400 mg/kg, po qd administered for 4 days; assay type: organism-based; details: in vivo, 96 h, time 4 day
# [35] = Toxicity in rat assessed as positive tissue transcriptional score at 40 to 400 mg/kg, po qd administered for 4 days; assay type: organism-based; details: in vivo, 96 h, dose 40-400 mg/kg, time 4 day
# mouse Bcrp = experiment: Apparent permeability in mouse Bcrp-transfected dog MDCK-II cells at 0.1 to 1 uM measured after 3 hrs by LC/MS/MS analysis; assay type: ADME, cell-based, Canis lupus familiaris; details: dose 0.1-1 µM
# [36] = Dissociation constant, pKa of the compound; assay type: physicochemical
# CYP1A1 = experiment: Toxicity in rat assessed as fold induction of CYP1A1 transcriptional activity in liver at 10 to 75 mg/kg, po bid administered for 4 days relative to control; assay type: organism-based; details: dose 10-75 mg/kg, time 4 day, read-out: FC
# [37] = In vivo inhibition of LRRK2 in CD rat assessed as reduction in phosphorylation at Ser935 residue in striatum at 1 mg/kg, po measured after 2 hrs by MSD assay; assay type: functional
# [38] = In vivo inhibition of LRRK2 in CD rat assessed as reduction in phosphorylation at Ser935 residue in striatum at 30 mg/kg, po measured after 2 hrs by MSD assay; assay type: functional
# [39] = Toxicity in rat assessed as fold increase in serum ALP levels at 150 mg/kg, po qd administered for 4 days; assay type: organism-based; details: in vivo, 96 h, time 4 day
compound,measurement,setting,value
O[C@H]1COC[C@H]1N1CC[C@@H](c2cc3nc(Nc4cnn([C@@H]5CC5(F)F)c4Cl)ncc3cc2Cl)[C@H](F)C1,bioavailability,[1],83%
same,Activity,[2],2%
same,"Kp uu at 4 h, 2.5 µM",[3],0.36
same,fIC50,[4],0.57 nM
same,"efflux ratio at 3 h, up to 1 µM",rat Mdr1a (P-gp) [5],3.7
same,"Papp A→B at 3 h, up to 1 µM",rat Mdr1a (P-gp) [6],30 ×10⁻⁶ cm/s
same,CLint scaled at 0.3 µM,[7],116 mL/min/kg
same,CLint scaled at 0.3 µM,[8],248 mL/min/kg
same,clearance,[9],19 mL/min/kg
same,bioavailability,[10],79%
same,IC50,[11],9.7 µM
same,Activity,Salmonella typhimurium [12],Non-Toxic
same,Activity,Salmonella typhimurium [13],Non-Toxic
same,fIC50,[14],1.9 nM
same,clearance,[15],9 mL/min/kg
same,clearance,[16],21 mL/min/kg
same,CL,[17],445 mL/min/kg
same,CL,[18],1295 mL/min/kg
same,MRT,[19],5.2 h
same,MRT,[20],24 h
same,Cp(f),[21],3.7 nM
same,Cp(f),[22],10.14 nM
same,IC50,[23],1.8 µM
same,IC50,Substance-P receptor,5.7 µM
same,IC50,[24],9.6 µM
same,Activity,[25],Non-Toxic
same,Activity,[26],Non-Toxic
same,Activity,[27],Toxic
same,Kp uu at 96 h,[28],0.67
same,AUC,[29],99 µM·h
same,Activity,[30],Non-Toxic
same,Activity,[31],Non-Toxic
same,Activity,[32],Toxic
same,fold change (FC),[33],2
same,Activity,[34],Toxic
same,Activity,[35],Non-Toxic
same,"Papp at 3 h, up to 1 µM",mouse Bcrp,28 ×10⁻⁶ cm/s
same,pKa,[36],5.65
same,fold induction at 96 h,CYP1A1,3
same,inhibition in vivo at 1 mg/kg,[37],7%
same,inhibition in vivo at 30 mg/kg,[38],92%
same,fold change (FC),[39],2

# — ChEMBL document CHEMBL5042510, “Structure-Guided Discovery of Aminoquinazolines as Brain-Penetrant and Selective LRRK2 Inhibitors” (J Med Chem, 2022)
